Values of other authors, collected in US11739076B2, “Compound or its salt thereof targeting fibroblast activation protein, its preparation methods and its uses thereof” (Institute of Nuclear Energy Research Atomic Energy Council, …, priority 2021, dated 2023).

Experiments:
tumor = conditions: in vivo

| Structure (SMILES) | binding ratio of FAP and DDP4 (FAP and DDP4) | tumor uptake and tumor-to-tissue ratio (tumor) | accumulation in the oral mucosa, salivary glands and thyroid glands (tumor; po) |
| --- | --- | --- | --- |
| N#C[C@@H]1CCCN1C(=O)CNC(=O)c1ccnc2ccc(OCCCN3CCN(C(=O)CN4CCN(CC(=O)O)CCN(CC(=O)O)CCN(CC(=O)O)CC4)CC3)cc12 [FAPI-02] | 45 | – | – |
| N#C[C@@H]1CC(F)(F)CN1C(=O)CNC(=O)c1ccnc2ccc(OCCCN3CCN(C(=O)CN4CCN(CC(=O)O)CCN(CC(=O)O)CCN(CC(=O)O)CC4)CC3)cc12 [FAPI-04] | 750 | – | – |
| CN(CCCN1CCN(C(=O)CN2CCN(CC(=O)O)CCN(CC(=O)O)CCN(CC(=O)O)CC2)CC1)c1ccc2nccc(C(=O)NCC(=O)N3CC(F)(F)C[C@H]3C#N)c2c1 [FAPI-46] | – | excellent tumor uptake and high tumor-to-tissue ratio | does not |
